Here are results for 3 molecules from patent US20250042873A1, “COMPOSITIONS AND METHODS FOR TREATING PROTEOTOXICITY-ASSOCIATED DISEASES” (priority 2021, published 2025).

Series [1] concerns tau protein expressed in human HEK293 cells. The series is described as follows: Clearance of tau protein expressed in human HEK293 cells. Type of series: cell-based. As to conditions: FIG. 4B.
Series [2] in a line: Brain penetration and pharmacokinetic studies using mass spectrometry analysis after intraperitoneal administration. As to conditions: mice; for blood-brain barrier penetration (detection in brain and spinal cord tissues): within minutes after intraperitoneal administration, mass spectrometry. Type of series: in vivo.
Series [3] concerns SOD1G93A ALS mouse model. Kind of series: Motor performance in the SOD1G93A ALS mouse model (Rotarod behavioral assays). Type of series: in vivo. As to conditions: intraperitoneal injections at the same drug concentration, compared with UNC669, FIG. 3J. The protocol: The effect of UNC669 was tested on one of the most characterized mouse model of proteotoxicity, the SOD1G93A ALS model.
A number of the newly synthesized UNC669 analogs have been tested for their effects on the clearance of misfolded proteins in the cells.

In series [4] the test system is misfolded mutant SOD1 in the spinal cords. As to conditions: FIG. 2D (prior art), cited from earlier work.
Series [5] relates to SOD1G93A ALS mouse model. As to conditions: SOD1G93A mice, 17 mg/kg intraperitoneal, weekly from 8 weeks of age, after 12 weeks, FIG. 2B (prior art); cited from earlier work.

“Also recorded” adds a separate entry of the source.

For `O=C(c1cncc(Cl)c1)N1CCC(N2CCCC2)CC1` [FX6], the “clearance / levels of tau protein” value in series [1] was “higher efficacy”. In addition, in series [2], the “blood-brain barrier penetration (detection in brain and spinal cord tissues)” value was “can penetrate the blood-brain barrier”. Moreover, in series [3], the “effect on improving motor performance (Rotarod)” value was “greater effects on improving the animals' motor performance”.

Regarding `N#Cc1cccc(C(=O)N2CCC(N3CCCC3)CC2)n1` [FX8], the “clearance / levels of tau protein” value in series [1] is recorded as “higher efficacy”. In addition, the “concentrations in the plasma, brain, or spinal cords” value in series [2] (3 hours after intraperitoneal administration, FX8 vs FX6 or UNC669, FIG. 3I) is on record as “highest levels of accumulation”. Besides, in series [2], the “blood-brain barrier penetration (detection in brain and spinal cord tissues)” value is recorded as “can penetrate the blood-brain barrier”. Moreover, the “effect on improving motor performance (Rotarod)” value in series [3] is “greater effects on improving the animals' motor performance”.

As to `O=C(c1cncc(Br)c1)N1CCC(N2CCCC2)CC1` [UNC669], the “clearance / levels of tau protein” value in series [1] is on record as “decrease the levels of tau proteins; also recorded: enhanced clearance of tau protein”. In series [4] (SOD1-G93A mice spinal cords), the “neuronal / motor neuron health (CHAT staining)” value was “improved the health of the motor neurons; also recorded: improved neuronal health”. Also, the “immunostaining of spinal cords with antibody specific for misfolded proteins” value in series [4] (SOD1-G93A mice) was “reduction of the mutant protein”. In addition, the “motor ability / motor performance of the animals” value in series [5] was “improvement in the animals' motor performance; also recorded: improves the motor ability of the animals”.
